Measured values taken from ChEMBL document CHEMBL1143539, “A fluorimetric assay for the spontaneous release of an N7-alkylguanine residue from duplex DNA” (Bioorg Med Chem Lett, 2005).

Key:
Assay type in all cases: ADME
[1] = Half-life by fluorescence method at 25 degrees C
[2] = Half-life by fluorescence method at 30 degrees C
[3] = Half-life by fluorescence method at 37 degrees C

C[C@H]1NC(=O)CC2([C@@](C)(O)C(=O)O)CC[C@@](C)(n3cnc4nc(N)nc(O)c43)[C@@H](S2)[C@@H](O)C(=O)/C=C/C=C\c2csc1n2
half-life [1]: 11 h | half-life [2]: 4.6 h | half-life [3]: 2.2 h
